# Legend:
# Assay type in all cases: in vivo, human
# [1] = tested on: NAD metabolome in skeletal muscle; test: Metabolomic analysis (LC-MS) in skeletal muscle biopsies; conditions: oral NR 1000 mg/day, 30 days
# Experimental: Biological material was collected at both visits, following a minimum 6-hour fasting and within 6 hours after study drug intake for visit 2. Sampling included whole blood, serum, peripheral blood mononuclear cells (PBMCs), cerebrospinal fluid (CSF) and muscle biopsy. Lumbar puncture was performed according to standard clinical procedures to collect 10 ml CSF. Needle biopsy of the vastus lateralis muscle was performed using a Bard Magnum biopsy gun (BD©, United States) and 12G×10 cm biopsy needles. Muscle biopsies were immediately dissected to remove any non-muscle tissue (e.g., fat or fascia) and snap-frozen in liquid nitrogen.
# Standard substances of all the targeted compounds were used to prepare stock standard solutions and these solutions were mixed and diluted to make serially diluted standard solutions in an internal standard solution containing 11 isotope-labeled compounds (NAD-13C5, NADH-d5, nicotinamide riboside-d4, nicotinic-d4 acid, nicotinic acid-d4 riboside, AMP-15N5, ATP-13C10, nicotinamide-d4, 1-methylnicotinamide-d3, adenosine-13C5 and GTP-13C10) in a concentration range of 0.0002 to 20 nmol/mL. Muscle tissues were added with water at 2.5 μL/mg raw material and then homogenized on an MM 400 mixer mill for 1 min twice. Methanol at 7.5 μL/mg raw material was then added and the samples were homogenized for 1 min three times. The samples were then placed at −20° C. for 2 h before centrifugation. 20 μL of the supernatant was mixed with 180 μL of the internal standard solution. The samples were then placed at 5° C. for 1 h and then centrifuged for 5 min at 21,000 g. The clear supernatants were used for LC-MS analyses. For metabolomic analyses in PBMCs, several aliquots of one sample were thawed on ice, centrifuged (10 min, 350×g, 4° C.), resuspended in ice-cold PBS and counted on a countess II cell counter. The equivalent volume of 10 Mio live cells was transferred into a new tube, centrifuged (10 min, 350×g, 4° C.), the supernatant removed, and the pellet immediately frozen on dry ice. Each PBMC sample was made into 75% methanol at a concentration of 50 μL per 1 Mio cells. After cell lysis on a MM 400 mixer mill for 1 min twice, the sample was centrifuged. 20 μL of the clear supernatant was mixed with 180 μL of the internal standard solution and was then used for LC-MS analysis.
# For UPLC-MRM/MS, 10 μL aliquots of each standard solution and each sample solutions were injected to run LCMRM/MS either on a Waters Acquity UPLC coupled to a Sciex QTRAP 6500 Plus mass spectrometer with (−) ion detection or ESI or on an Agilent 1290 UHPLC system coupled to an Agilent 6495B QQQ mass spectrometer with (+) ion detection. For UPLC-(−) MRM/MS, a reversed-phase C18 LC column (2.1*100 mm, 1.8 μm) was used for LC separation, with the use of a tributylamine-ammonium acetate buffer (solvent A) and acetonitrile (solvent B) as the mobile phase for gradient elution at 50° C. and 0.25 mL/min. For UPLC-(+) MRM/MS, a reversed-phase C18 column (2.1*150 mm, 1.8 μm) was used for LC separation, with the use of hepatofluorobutyrate buffer (solvent A) and methanol (solvent B) as the mobile phase for gradient elution at 50° C. and 0.3 mL/min. Concentrations of individual metabolites detected in each sample were calculated by constructing linear-regression curves of individual metabolites with the analyte-to-internal standard peak area ratios (As/Ai) of standard solutions in each set of LC-MS runs and then by interpolating the calibration curves with the as/Ai values measured from injections of sample solutions in an appropriate concentration range for each compound. Sample preparation and metabolomic analyses were conducted at Creative Proteomics, NY, USA.
# The between visit change ([visit 2]−[visit 1]) in MDS-UPDRS (total of subsections I-III; and individual subsections I, II and III) was compared between the NR and placebo groups using independent Student's t-test. […]
# [2] = tested on: nigrostriatal degeneration or denervation (DAT loss); test: Follow-up DAT-scan of phase I participants (Example 4)
# From the text: In the study of the present Example 4, […] of the participants from the study of Example 2 (9 receiving placebo and 11 receiving NR) were examined by a second DAT-scan 1-1.5 year after the completion of the study, for entry into the study of Example 3. […] FIG. 15 represents box plots showing the change (delta) of the DAT-scan tracer uptake in the posterior putamen between the second and first examination (delta=scan2−scan1). […] The data is normally distributed (Shapiro-Wilk normality test).
# [3] = tested on: gene expression in muscle; test: RNA-seq differential gene expression in muscle tissue; conditions: NR vs placebo
# Experimental: For all subjects at both visits, total RNA was extracted from muscle biopsy tissue and PBMC homogenate using RNeasy plus mini kit (Qiagen) with on-column DNase treatment according to manufacturer's protocol. The final elution was made in 45 ul of dH2O. The concentration and integrity of the total RNA were estimated by Ribogreen assay (Thermo Fisher Scientific), and Fragment Analyzer (Advanced Analytical), respectively, and 10 ng of total RNA was used for downstream RNA-seq applications using the SMARTer Stranded Total RNA-Seq Kit v2-Pico Input Mammalian Kit (IlluminaTakara Bio USA, Inc., Mountian View, CA) as per manufacturer's recommended protocol. Library quantity was assessed by Picogreen Assay (Thermo Fisher Scientific), and the library quality was estimated by utilizing a DNA High Sense chip on a Caliper Gx (Perkin Elmer). Accurate quantification of the final libraries for sequencing applications was determined using the qPCR-based KAPA Biosystems Library Quantification kit (Kapa Biosystems, Inc.). Each library pooled equimolar prior to clustering. One hundred bp paired-end sequencing was performed on an Illumina NovaSeq S4 sequencer (Illumina, Inc.). Two subjects were discarded from the PBMC samples and two from the muscle samples due to either insufficient tissue quantity, participant drop out/lack of sample, or being outliers in expression. […] FASTQ files were assessed using […] version 0.11.9. Quantification at the transcript level was calculated using Salmon version 1.3.0 with fragment-level GC bias correction against the GENCODE version 35, with the whole genome as decoy sequence. Transcript-level quantification was collapsed onto gene-level using the tximport R package version 1.8.0. Genes in non-canonical chromosomes and scaffolds and transcripts encoded by the mitochondrial genome were filtered out, together with non-protein-coding genes. Low-expressed genes were likewise removed from downstream analyses (expression below 10 reads for 75% of the samples). PBMC and muscle datasets were analysed independently. For PBMC samples, cell type composition was assessed employing ABIS. Differential gene expression was performed using the DESeq2 R package version 1.22.2. The generalized linear model formula accounted for both interindividual variability between subjects and the normal course of the experiment (baseline for each subject and baseline for the time-course). Multiple hypothesis testing was performed with the default automatic filtering of DESeq2 followed by false discovery rate (FDR) calculation by the Benjamini-Hochberg procedure.
smiles,measurement,setting,value
"NC(=O)c1ccc[n+]([C@@H]2O[C@H](CO)[C@@H](O)[C@H]2O)c1 [NR, nicotinamide riboside]",Me-2-PY level in muscle tissue after treatment,[1],strongly elevated
same,Me-4-PY level in muscle tissue after treatment,[1],strongly elevated
same,NAAD level in muscle tissue after treatment,[1],strongly elevated
same,Nam N-oxide level in muscle tissue after treatment,[1],strongly elevated
same,"acetyl-CoA, CoA, SAM and its metabolites, energy compounds such as ATP in muscle",[1],no significant change
same,methyl-Nam (Me-Nam) level in muscle tissue after treatment,[1],strongly elevated
same,"steady state levels of NAD (NAD+ and NADH), NAD precursors and intermediates in muscle",[1],not significantly changed
same,"progression of the DAT loss between first and second DAT-scan, NR vs placebo group","[2]; second scan 1-1.5 year after the study, posterior putamen, t-test p=0.35",no significant difference
same,trend in progression of nigrostriatal denervation in NR group,"[2]; smaller difference between the two examinations, p=0.35",non-significant trend for decreased progression
same,KLF2 expression in muscle,[3],substantial upregulation
same,"expression of PARP15, AMT, FARS2, TMEM242 in muscle",[3],upregulation
same,"gene set enrichment in muscle: proteasomal function, RNA transport and stability",[3],upregulation
same,number of differentially expressed genes in muscle tissue,"[3]; between visit differences, FDR<0.05",58 genes
